Source: article PMC12595484, “Optimizing multifunctional fluorescent ligands for intracellular labeling” (Proceedings of the National Academy of Sciences of the …, 2025)
Values joined by “and” are separate entries in the source; they are usually repeats but may differ in a detail not shown here. Identical values can stand only once. Like-named read-outs stand apart in the source and are kept apart here.

Columns and labels:
[1] = 1:1 (v/v) dioxane–water, cited from earlier work
[2] = Determination of logD7.4 (miniaturized shake flask, octanol–PBS); assay type: physicochemical; details: pH 7.4
Experimental: Detailed descriptions of the materials and methods are provided in the supporting information. Multifunctional rhodamine–HaloTag ligands (13HTL–16HTL and 18HTL–20HTL) were synthesized using palladium-catalyzed cross-coupling reactions to install 3-carboxyazetidine moieties onto rhodamine scaffolds, followed by amide bond formation with biotin–PEG2–NH2, (S)-JQ1–PEG2–NH2, or (R)-JQ1–PEG2–NH2. Spectroscopic properties (λabs, λem, ε, and Φf) were determined in 10 mM HEPES, pH 7.3. The lactone–zwitterion equilibrium constants (KL–Z) were measured in 1:1 (v/v) dioxane–water mixtures. Octanol–water distribution coefficients (logD7.4) were determined by miniaturized shake-flask partitioning experiments using PBS (pH 7.4) and 1-octanol. Cell culture experiments employed HEK293T, U2OS, and Neuro2a cells transfected with HaloTag fusion constructs and labeled with ligands (100 nM to 1 μM, 0.5 to 2 h at 37 °C), followed by fluorescence microscopy using confocal or lattice light-sheet microscopy. Affinity purification studies utilized streptavidin magnetic beads to capture biotin-labeled HaloTag conjugates, with analysis by SDS-PAGE and in-gel fluorescence detection. […]
Reported values are averages of at least two measurements.
Determination of logD7.4. The log of distribution coefficients at pH 7.4 was determined in octanol–phosphate-buffered saline (PBS) using a miniaturized shake flask setup described previously.6, 7 Briefly, 150 mL each of octanol and PBS pH 7.4 were stirred vigorously for 12–16 h. The layers were allowed to stand for at least 24 h for phase separation. The separated layers were collected and served as PBS saturated with octanol (PBS*) and octanol saturated with PBS (octanol*). Stock solutions (1 mM or 5 mM) of ligands were prepared in DMSO and diluted in PBS* to obtain 1 μM or 10 μM (3–5 mL) of the standard (std). This standard was used to prepare appropriate dilutions using octanol*, in triplicate, in 2-mL glass vials. The leftover standard was used to determine the standard concentration (Cstd). The vials were vortexed for 1 min and shaken horizontally at 700 rpm for 2 h. The vials were then shaken upright at 150 rpm for 2 h to allow the phases to separate. The octanol* layer was pipetted out, and the PBS* layer was used for further analyses. The concentrations of ligands in the standard and PBS* (CPBS*) were determined via fluorescence measurements of 200 μL of PBS* or std in 96-well plates on the Cytation 5 Multimode Plate Reader (BioTek). For Si-rhodamine containing ligands, 2–20 μL of […]
trifluoroacetic acid was added to each well of the 96-well plate prior to the fluorescence measurements. Reported values are averages of at least two measurements. The logD7.4 was obtained as described previously using equation 2: logD = log *’(" × r − 1. +)*+∗ / (2) […]
where Cstd is the standard concentration in PBS, CPBS* is the concentration in PBS after partitioning, r is the dilution factor of the standard solution, VPBS* is the volume of PBS used in the partitioning, and Voctanol* is the volume of octanol used in the partitioning.
Plasmid construction for mitochondria imaging and affinity purification. HaloTag, amplified from the pHTC HaloTag CMV-neo Vector (Promega; G7711) and monomeric-superfolder green fluorescent protein (msGFP; lab stock), was fused to the mitochondrial targeting signal from OMP25,8 interspacing flexible GS(GSS)4 linkers between each domain by PCR Splicing by Overlap Extension (SOE). This construct was subcloned into hSynapsin promoter bearing a copy of FUGW.9 FUGW was a gift from David Baltimore (Addgene plasmid # 14883; RRID:
Addgene_14883).10 This construct was designated as pF(UG) hSyn HaloTag-TEV-4×GS-msGFP- […]
HEK293T cell culture. HEK293T cells (ATCC) were passaged before 80% confluency by trypsinization (Corning; 25-053-CI) and trituration. The cell suspension was then plated on glass coverslips (Warner instruments; 64-0734, CS-18R17) coated with poly-D-lysine (Thermofisher; […]

[3] = set-up: method as in PMID 28869757, PMID 25599551; details: 10 mM HEPES, pH 7.3; ref 27 and 50; cited from earlier work
[4] = test system: sfGFP–BRD4 in Neuro2a cells expressing coilin–HaloTag; assay: BRD4 translocation to coilin–HaloTag, LLSM; assay type: cell-based
Experimental: The ability of JQ1 ligands to enter living cells and recruit BRD4 to defined genomic regions was evaluated using lattice light sheet fluorescence microscopy (LLSM). Neuro2a cells were transiently transfected with plasmids encoding three fusion proteins: i) HaloTag protein fused to coilin, […]; ii) superfolder GFP–BRD4; and iii) histone H2B–mCherry as a nuclear marker. The Cajal body component coilin localizes in distinct puncta in the nucleus ([62]) compared to the diffuse euchromatic distribution of BRD4. […]
Neuro2a cell culture, labeling, lattice light sheet microscopy (LLSM), and confocal microscopy. […]
Full 3D volumes at multiple stage positions were collected at 2 minute intervals for 90 minutes total. […] The recruitment of histone H3.3 was assessed by imaging after 24 h incubation with 19HTL. […]
LLSM imaging processing. Raw image data volumes were deskewed and rotated, then empirically deconvolved using a Richardson-Lucy maximum likelihood algorithm using experimentally measured PSFs for each color channel for 30 iterations. […] These segmentation masks were then used to isolate each nucleus for further quantitative analyses. […] The amount of BRD4 signal was then assessed in- versus outside HaloTag labeled domains throughout the 90-min time-lapse acquisition. […]

[5] = test system: sfGFP–BRD4 in Neuro2a cells expressing HP1a–HaloTag; assay: BRD4 translocation to HP1a–HaloTag, LLSM; assay type: cell-based; details: 90 min
Excerpt: Given its lower fluorescence background and more efficacious recruitment of BRD4, we focused on (S)-JQ1–JF635–HaloTag ligand (19HTL) for subsequent experiments. To test the generality of 19HTL in recruiting BRD4, we imaged cells expressing heterochromatin protein 1a (HP1a) fused to HaloTag (Fig. 7A). HP1a is localized within constitutive heterochromatin as its N-terminal chromodomain binds to methylated histone H3 ([65]).
(2HTL) and JF608-HaloTag ligand (3HTL) reached a fluorescence plateau, and they were chosen as saturating counter stains or “chase” dyes for examining the labeling efficiency of biotin-JF-HaloTag ligands (13HTL–16HTL). Next, we developed an in-gel assay to independently quantitate labeling efficiencies of 13HTL–16HTL. […] Bands representing HaloTag ligand were quantified by densitometry using […]
(§1) labeling efficiency calculations, bands representing saturating chase dye fluorescence (e.g., JF549) were compared to saturating primary dye fluorescence allowing estimation of the amount of […]
Where F is the fraction of HaloTag protein labeled, Ce is the experimental chase dye fluorescence signal after incubation with pulse biotin-JF-HaloTag ligand, and Cs is the saturating chase dye fluorescence without incubation with a pulse ligand. […]

[6] = test system: OMP25–msGFP–HaloTag fusion protein in HEK293T cells; assay: Pulse–chase HaloTag labeling efficiency, SDS–PAGE/in-gel fluorescence; assay type: cell-based; details: 2 h, mean ± SEM
Experimental: PBS, 2% (v/v) SDS, 1% (v/v) Triton x-100, 10 mM EDTA, and protease inhibitors (2 mM PMSF, aprotinin, leupeptin, and pepstatin A). Samples were then incubated at 50 °C for 3–4 min after the addition of Laemmli sample buffer (SB; Bio-Rad, 1610747) with β-mercaptoethanol (Bio-Rad, 1610710). For protein detection, 10–20 µL of the sample was subjected to SDS-PAGE, using 10% Tris-Glycine gels (TGX) (Bio-Rad, 5671034) with Tris-Glycine buffer (Bio-Rad, 1610732). […]
Quantification of HaloTag labeling efficiency using in-gel fluorescence. HEK293T cells were cultured, incubated and transfected with pF(UG) hSyn HaloTag-TEV-4×GS-msGFP-mito using lipofectamine LTX reagent as described above. To examine saturation of HaloTag, we screened for fluorescence plateau using 1 μM of JF479-HaloTag ligand,4 JF549-HaloTag ligand (2HTL) and […]
(2HTL) and JF608-HaloTag ligand (3HTL) reached a fluorescence plateau, and they were chosen as saturating counter stains or “chase” dyes for examining the labeling efficiency of biotin-JF-HaloTag ligands (13HTL–16HTL). Next, we developed an in-gel assay to independently quantitate labeling efficiencies of 13HTL–16HTL. We used JF549-HaloTag ligand (2HTL) as chase for evaluating biotin-JF608-HaloTag ligand (14HTL), biotin-JF646-HaloTag ligand (15HTL), and biotin-JF635-HaloTag ligand (16HTL). We used JF608-HaloTag ligand (3HTL) as chase for evaluating biotin-JF549-HaloTag ligand (13HTL). Each experiment consisted of testing the biotin variants 13HTL–16HTL at 100 nM and 1 μM with an incubation time of 2 h and a chase labeling incubation of 1 μM for 0.5 h. The 0.5 h chase labeling period was included with the 2 h total incubation. Each experiment consisted of the following conditions: untransfected cells; (A) transduced, but no dye; (B) non-biotinylated variant of primary label at 1 μM for 0.5 h; (C) the nonbiotinylated version of the chase JF dye at 1 μM for 0.5 h; (D) 100 nM of the nonbiotinylated version of the primary label for 2 h; (E) 100 nM of the biotinylated version of primary label for 2 h; (F) 1 μM of the nonbiotinylated version of the primary label for 2 h; (G) 1 μM of the biotinylated version of primary label for 2 h; and (H) 1 μM of the non-biotinylated version of the chase JF dye at 1 μM for 2 h. This last condition H was the same as condition C but with a longer incubation (2 h vs. 0.5 h) to allow independent verification of the chase saturation using 0.5 h incubation. Samples D–G were incubated with a nonbiotinylated chase dye at 1 μM for 0.5 h. Cells were washed and protein lysates were harvested using Bio-Rad SDS-PAGE products as described above. Specifically, cells were lysed using protein lysis buffer as described above, and adding XT Sample Buffer (Bio-Rad, 1610791) and XT Reducing Agent (Bio-Rad, 1610792). Samples were heated at 72 °C for 5 min. Samples were then loaded onto a 4–12% Criterion XT Bis-Tris gel (Bio-Rad, 3450124) and ran at 150 V for approximately 1 h. Gels were then imaged on a Chemidoc MP imager (Bio-Rad) using orange, red, and far-red filters. Bands representing HaloTag ligand were quantified by densitometry using […]
as §1
Where F is the fraction of HaloTag protein labeled, Ce is the experimental chase dye fluorescence signal after incubation with pulse biotin-JF-HaloTag ligand, and Cs is the saturating chase dye fluorescence without incubation with a pulse ligand.
Neuro2a cell culture, labeling, lattice light sheet microscopy (LLSM), and confocal microscopy. Neuro2a cells (ATCC, CCL-131) were cultured in Eagle's minimum essential medium (MEM, phenol red-free; Life Technologies) supplemented with 10% (v/v) fetal bovine serum (FBS), and maintained at 37 °C in a humidified 5% (v/v) CO2 environment. Cells were transiently transfected using nucleofection (Lonza) with plasmids constitutively expressing

| Molecule | logD [2] | Φf [3] | ε [3] | λabs [3] | λem [3] | other results |
| --- | --- | --- | --- | --- | --- | --- |
| C[Si]1(C)c2cc(N3CCC3)ccc2C2(OC(=O)c3ccccc32)c2ccc(N3CCC3)cc21 [compound 5, Janelia Fluor 646] | 3.98 | 0.54 | 5,000 M^−1cm^−1 | 646 nm | 664 nm | KL–Z ([1]; parent dyes, ref 27 and 50): 0.0014 |
| (R)-JQ1–JF635–HaloTag ligand [20HTL] |  |  |  |  |  | BRD4 recruitment to coilin–HaloTag sites ([4]; Neuro2a cells, LLSM, 90 min): no GFP–BRD4 recruitment; BRD4 translocation to HP1a–HaloTag [5]: no GFP–BRD4 recruitment |
| O=C(CCCC[C@@H]1SC[C@@H]2NC(=O)N[C@@H]21)NCCOCCOCCCCCCCl [17HTL, biotin–HaloTag ligand, reference compound] |  |  |  |  |  | labeling efficiency ([6]; 100 nM pulse): 32.0 ± 9.3%; labeling efficiency ([6]; 1 µM pulse): 92.1 ± 0.4% |
| Cc1sc2c(c1C)C(c1ccc(Cl)cc1)=N[C@@H](CC(=O)OC(C)(C)C)c1nnc(C)n1-2 [JQ1, (S)-JQ1, reference compound] |  |  |  |  |  | effect of excess free JQ1 on BRD4 recruitment by 19HTL ([4]; 25 μM (S)-JQ1 with 20 nM 19HTL, coilin–HaloTag, confocal): inhibited BRD4 recruitment |
| C[Si]1(C)c2cc(N3CC(F)C3)ccc2C2(OC(=O)c3ccccc32)c2ccc(N3CC(F)C3)cc21 [compound 6, JF635] | 4.1 | 0.66 | ~ 400 M^−1cm^−1 | 635 nm | 652 nm | KL–Z [1]: ≈ 0.0001 and 0.0001 |
